Source: patent US8476300B2, “Selective estrogen receptor modulator for the treatment of osteoarthritis” (Eli Lilly and Company, priority 2008, dated 2013)

Assays:
[1] = tested on: Ishikawa cells; assay: Ishikawa cell proliferation assay (alkaline phosphatase readout; agonist and antagonist modes); type: cell-based; settings: for agonist activity: agonist mode, compound alone, versus the response to tamoxifen
Description: Ishikawa Cell Proliferation Assay:
This assay measures cell proliferation (using an alkaline phosphatase readout) in both an agonist mode in the presence of a test compound alone, and in an antagonist mode in which the ability of a test compound to block estradiol stimulation of growth is measured.
After an overnight incubation, Ishikawa cells are rinsed with Dulbecco's Phosphate Buffered Saline (“D-PBS”) without Ca^+2 and Mg^+2, and trypsinized by a 3 minute incubation with 0.25% Trypsin/EDTA, phenol red-free. Cells are re-suspended in assay medium and adjusted to 250,000 cells/mL. Approximately 25,000 cells in a 100 μl media are added to flat-bottom 96 wells microculture plates and incubated at 37° C. in a 5% CO2 humidified incubator for 24 hours. The next day, serial dilutions of compounds are prepared in assay medium (at 6 times the final concentration in the assay). The assay is run in dual mode, agonist and antagonist modes.
For the agonist mode, plates receive 25 μL/well of assay medium followed by 25 μL/well of a diluted test compound (at 6× the final concentrations). For the antagonist mode, plates receive 25 μL/well of 6 nM 17 β-estradiol (“E2”) followed by 25 μL/well of a diluted test compound (at 6× the final concentrations). After an additional 48-hour incubation at 37° C. in a 5% CO2 humidified incubator, media is aspirated from wells and 100 μL fresh assay medium is added to each microculture. Serial dilutions of compounds are prepared and added to the cells as described above. After an additional 72 hour incubation at 37° C. in a 5% CO2 humidified incubator, the assay is quenched by removing media and rinsing plates twice in D-PBS. The plates are dried for 5 minutes and frozen at −70° C. for at least 1 hour. The plates are then removed from the freezer and allowed to thaw at room temperature. After a 20-minute incubation, plates are read on a spectophotometer at 405 nm.
The data are fitted using a 4 parameter fit model to derive EC50 (for agonist mode) or IC50 (for antagonist mode) values. For the antagonist mode, a % efficacy for each compound is calculated versus E2 (1 nM) alone. For the agonist mode, a % efficacy for each compound is calculated versus the response to tamoxifen. […] The average agonist activity of the compound of Example 1 alone was 17.7%±11.3% (n=4) (arithmetric mean±standard deviation). The values for the compound of Example 1 may be compared to 4-hydroxytamoxifen which generally results in >100% agonist activity.

[2] = biological target: T1, ERα receptor (Homo sapiens, UniProt P03372); assay: Estrogen receptor competition binding assay (3H-estradiol displacement), ERα; settings: geometric mean±standard deviation, from IC50 by Cheng-Prusoff, read-out: Ki-α
T1 sequence (P03372 1-595): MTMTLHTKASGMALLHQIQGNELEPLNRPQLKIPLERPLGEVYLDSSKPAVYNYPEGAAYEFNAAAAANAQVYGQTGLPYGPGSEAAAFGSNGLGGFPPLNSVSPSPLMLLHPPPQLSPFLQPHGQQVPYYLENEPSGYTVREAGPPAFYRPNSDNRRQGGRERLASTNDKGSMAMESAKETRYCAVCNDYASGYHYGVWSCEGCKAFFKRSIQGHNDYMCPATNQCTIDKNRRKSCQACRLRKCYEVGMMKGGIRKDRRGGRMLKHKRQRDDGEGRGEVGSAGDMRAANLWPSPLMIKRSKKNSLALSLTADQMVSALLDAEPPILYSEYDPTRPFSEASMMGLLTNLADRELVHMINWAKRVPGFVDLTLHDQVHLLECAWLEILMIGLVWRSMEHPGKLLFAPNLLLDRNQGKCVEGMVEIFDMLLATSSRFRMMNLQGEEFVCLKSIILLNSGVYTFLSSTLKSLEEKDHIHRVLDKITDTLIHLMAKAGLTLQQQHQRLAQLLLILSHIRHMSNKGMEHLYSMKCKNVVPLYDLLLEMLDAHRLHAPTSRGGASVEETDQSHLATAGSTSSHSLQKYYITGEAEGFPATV
Description: (§1) Estrogen Receptor Binding Assay:
(§2) Compounds are tested for binding affinity to both estrogen receptor types (ERα and ERβ) by a competition binding assay that measures the compound's ability to displace ^3H-estradiol from the receptors. IC50 and Ki values for both receptor types can be calculated.
(§3) A competition binding assay is run in a buffer containing 50 mM HEPES buffering reagent, pH 7.5, 1.5 mM ethylenediaminetetraacetic acid (“EDTA”), 150 mM NaCl, 10% glycerol, 1 mg/mL ovalbumin and 5 mM dithiothreitol (“DTT”), using 0.025 μCi per well ^3H-Estradiol (NEN#NET517 at 118 Ci/mmol, 1 mCi/mL), 10 ng/well ERα or ERβ receptor. A test compound is added at 10 different concentrations. Non-specific binding is determined in the presence of 1 μM of estradiol (17 β-estradiol). The binding reaction (140 μL) is incubated for 4 hours at room temperature, then 70 μl of cold DCC buffer is added to each reaction (DCC buffer contains per 50 mL of assay buffer, 750 mg of charcoal and 250 mg of dextran). Plates are mixed 8 minutes on an orbital shaker at 4° C. […] After an incubation of 2.5 hours, the plates are read in a counter. […] The Kd for ^3H-Estradiol is determined by saturation binding to ERα and ERβ receptors. The IC50 values for test compounds are converted to Ki using the Cheng-Prusoff equation, and the Kd determined by saturation binding assay.

[3] = biological target: ERβ receptor (Homo sapiens, UniProt Q92731); assay: Estrogen receptor competition binding assay (3H-estradiol displacement), ERβ; settings: geometric mean±standard deviation, from IC50 by Cheng-Prusoff, read-out: Ki-β
Sequence of ERβ receptor (Q92731 whole entry): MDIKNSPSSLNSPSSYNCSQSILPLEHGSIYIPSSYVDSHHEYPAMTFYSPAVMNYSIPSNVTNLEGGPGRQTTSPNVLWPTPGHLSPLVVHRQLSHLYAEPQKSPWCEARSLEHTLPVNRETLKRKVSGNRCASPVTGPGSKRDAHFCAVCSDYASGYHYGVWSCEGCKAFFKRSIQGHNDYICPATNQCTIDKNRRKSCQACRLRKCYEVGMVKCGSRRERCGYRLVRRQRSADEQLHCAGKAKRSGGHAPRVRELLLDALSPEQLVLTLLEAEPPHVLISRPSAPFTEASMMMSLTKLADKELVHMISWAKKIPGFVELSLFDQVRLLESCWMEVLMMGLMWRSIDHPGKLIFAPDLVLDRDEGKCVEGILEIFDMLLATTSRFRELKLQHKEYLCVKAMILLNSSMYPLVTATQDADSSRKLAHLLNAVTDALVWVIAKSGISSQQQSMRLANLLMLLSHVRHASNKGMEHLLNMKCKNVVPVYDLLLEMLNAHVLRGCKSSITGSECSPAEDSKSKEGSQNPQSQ
Description: as §1, §2, §3

[4] = tested on: immature rat uterus (estrogen-induced uterine weight); assay: 3-Day immature rat uterus antagonist assay; type: in vivo; settings: oral, 3 days, with EE2 0.1 mg/kg
Description: 3-Day Immature Rat Uterus Antagonist Assay:
This model for uterine antagonism utilizes immature (3 week old) female rats that are highly sensitive to estrogenic stimulation of the uterus given that their circulating estrogen levels are prepubertal. The uteri from immature rats are fully responsive to exogenous estrogen, yet are quiescent in the absence of exogenous estrogen. Administration of exogenous estrogen to immature rats produces a reliable elevation of uterine weight, which can be used to study uterine antagonist effects. The rats are treated with both estradiol and 4 different concentrations of a test compound for 3 days and then uterine wet weights are measured. […]
Uterine weight/body weight ratios (UWR) are calculated for each animal. The percent inhibition of the estrogen-induced response is then calculated by the following formula: percent inhibition=100×(UWRestrogen−UWRtest compound)/(UWRestrogen−UWRcontrol)
ED50 values are derived from a semi-log regression analysis of the linear aspect of the dose response curve. Both the UWR data and the percent inhibition data are statistically analyzed by one way analysis of variance (ANOVA) with post-hoc testing by Fisher's PLSD when indicated by a p<0.05.

[5] = tested on: pCTX-II; assay: P-CTXII biomarker; type: in vivo
Description: pCTX-II is believed to be a useful biomarker reflecting efficacy relating to the treatment of OA. See for example, Garnero P et al Ann Rheum Dis 2003; 62:939-943; Mazieres B et al, Arthritis Rheum 2003; 48:5683

[6] = tested on: OVX rat uterus; assay: 4-Day OVX rat uterine agonist assay; type: in vivo
Description: 4-Day OVX Rat Uterine Agonist Assay:
Seventy-five day old rats are ovariectomized and treatment is started 14 days later when circulating estradiol levels have reached minimal levels. After 4 days of treatment with 3 doses of a test compound, (6 rats per group) body weight, uterine wet weight and uterine eosinophil peroxidase (EPO) activity are measured. Cholesterol levels are also measured to compare relative ability to lower cholesterol with other SERMs. If there is any question of uterine stimulation, histological examination will determine epithelial cell height.
A significant (>10% of the increase induced by estradiol @0.1 mg/kg) and dose-responsive increase in uterine EPO activity is used as an early indicator of potential uterine agonist activity. […] None of the groups dosed with the compound of Example 1 evidenced an increase in EPO activity that was >10% of that induced by estradiol at 0.1 mg/Kg. Significant, dose-related increases in uterine endometrial thickness have also been used as an early sign of potential SERM uterine agonist activity.

[7] = tested on: OVX/MCT animals; assay: OVX/Meniscal tear model of OA; type: in vivo, rat
Description: The rat meniscal tear (MCT) model is a well-described model of OA in which joint damage and pain are induced by surgical intervention (transection of the medial meniscus) in one knee joint. In the standard MCT model using male rats, joint pathology develops progressively and is measured via joint histology at 3 weeks post-surgery.

[8] = marker of cartilage type II collagen turnover; cited from earlier work
[9] = n=4, arithmetic mean±standard deviation

| Ki [2] | melting point | Ki [3] | increase in EPO activity relative to that induced by estradiol at 0.1 mg/Kg ([6]; all dose groups) | Compound | agonist activity [1, 9] | ED50 (inhibition of estrogen-induced uterine weight/body weight ratio) [4] | IC50 ([1]; Homo sapiens, Ishikawa, antagonist mode, n=4, geometric mean±standard deviation, read-out: relative IC50) | antagonist efficacy ([1]; antagonist mode, versus E2 (1 nM) alone, n=4, arithmetic mean±standard deviation) | pCTX-II levels compared with 17α-ethynylestradiol treatment ([5]; all doses) | pCTX-II ([5]; in vivo) | uterine endometrial thickness, dose related increase vs OVX group ([6]; doses up to 10 mg/kg) | uterine EPO activity, dose related increase vs OVX group ([6]; doses up to 10 mg/kg, 4 days, Tukey Kramer p<0.05) | doses with statistically significant pain reduction vs OVX/MCT group ([7]; OVX animals, meniscal tear) | joint pain ([7]; OVX animals, meniscal tear) | reduction in joint pain compared with 17α-ethynylestradiol ([7]; doses of 3 and 10 mg/kg) | urinary levels of CTX-II [8] |
| --- | --- | --- | --- | --- | --- | --- | --- | --- | --- | --- | --- | --- | --- | --- | --- | --- |
|  |  |  |  | 4-hydroxytamoxifen [reference compound] | > 100% |  |  |  |  |  |  |  |  |  |  |  |
| 0.15 ± 0.22 nM | 248.82 °C | 0.2 ± 0.2 nM | up to 10% | Cc1ccc(-c2ccc3cc(O)ccc3c2Oc2ccc(OCCN3CCCCC3)cc2)s1.Cl [Example 1, 6-(5-methylthiophen-2-yl)-5-(4-(2-(piperidin-1-yl)ethoxy)phenoxy)naphthalen-2-ol hydrochloride] | 17.7%±11.3% | 0.053 mg/kg | 3.75 ± 1.71 nM | 102%±8.4% | not statistically different from those resulting from treatment with 17α-ethynylestradiol | significantly and dose-dependently reduced pCTX-II | did not result in significant, dose related increases in uterine endometrial thickness | no significant dose related increases in EPO activity | ≥ 1.0 mg/kg | reduced pain in a dose-dependent fashion | not statistically different from those induced by 17α-ethynylestradiol |  |
|  |  |  |  | COc1ccc2c(c1)OC(C)(C)[C@@H](c1ccccc1)[C@@H]2c1ccc(OCCN2CCCC2)cc1 [levormeloxifene] |  |  |  |  |  |  |  |  |  |  |  | significantly decrease the urinary levels of CTX-II |
